Source: patent publication US10059721B2, “Substituted thieno[3,2-b]pyrazines for inhibiting cancer cell proliferation and inducing cancer cell apoptosis” (DONGGUK UNIVERSITY INDUSTRY-ACADEMIC COOPERATION FOUNDATION, priority 2014, dated 2018)

Tests used:
Assay type in all cases: cell-based
[1] = test system: PANC-1 (pancreatic cancer) cell line; experiment: Cell growth inhibition experiment (SRB), PANC-1; details: Homo sapiens, incubated for 96 hours, read-out: IC50 (μM) of cancer cell lines PANC-1
Description: (§1) The cell lines below were used in order to confirm the efficacy of the compounds synthesized in Examples 1 to 27. Human PANC-1 (pancreatic cancer) and MDA-MB-231 (breast cancer) cell lines were obtained from American Type Culture Collection (ATCC; Manassas, Va.); and HN31 (head and neck cancer) and UMRC2 (kidney cancer) cell lines were secured from the United States National Institutes of Health (Bethesda, Md.). The MDA-MB-231, UMRC2, HN31, and PANC-1 cell lines were cultured in Dulbecco modified Eagle medium (DMEM) containing FBS (10%), HEPES (10 mM), penicillin (100 U/mL), and streptomycin (100 μg/mL). All cell lines were cultured in an incubator (37° C., 5% CO2).
(§2) The 4-(aryl)-N-(2-alkoxythieno[3,2-b]pyrazin-3-yl)-piperazin-1-carboxamide derivative compounds synthesized according to Examples 1 to 27 of the present invention were treated with various human tissue-derived cancer cell lines cultured according to Experimental Example 1, and thus the inhibitory effect of the growth of human cancer cells was confirmed. The cell growth inhibition experiment was conducted using sulforhodamine B (SRB) technique (Skehan et al., J. National Cancer Institute, 1990, 82: 1107-1112). Specifically, each cell line was seeded in a 96-well plate at a density of 2 to 3×10^3 cells/well, cultured overnight, and then treated with the 4-(aryl)-N-(2-alkoxythieno[3,2-b]pyrazin-3-yl)-piperazin-1-carboxamide derivative compounds of the present invention. The experiment was repeated 3 times for each compound. Cells treated with each compound were additionally incubated for 96 hours, fixed with 10% trichloroacetic acid (TCA), and then left at 4° C. for 1 hour. The resultant was washed 3 times with distilled water. Thereafter, each cell was treated with 0.4% sulforhodamine B dissolved in 1% acetic acid, stained for 30 minutes, and then washed 4 times with 1% acetic acid. The resultant was dried in the air. After shaking the resultant in Tris solution (10 mM) for 5 minutes, the absorbance was measured at 530 nm using a Benchmark Plus Microplate reader (Bio-Rad Laboratories, Hercules, Calif.).
(§3) In order to convert the OD530 value to the number of viable cells per each well, the measured OD530 value was compared to the standard OD530-vs.-cell number curve of each cell line. The percent survival was calculated using the following formula: % survival=Nlive cells(test)/Nlive cells(control)×100
(§4) IC50 values were calculated by nonlinear regression analysis.

HT29 = experiment: Cell growth inhibition experiment (SRB), HT29; details: Homo sapiens, HT-29, incubated for 96 hours, read-out: IC50 (μM) of cancer cell lines HT29
Description: as §2, §3, §4

SK-OV-3 = experiment: Cell growth inhibition experiment (SRB), SK-OV-3; details: Homo sapiens, incubated for 96 hours, read-out: IC50 (μM) of cancer cell lines SK-OV-3
Description: as §2, §3, §4

HUVEC = experiment: Cell growth inhibition experiment (SRB), HUVEC; details: Homo sapiens, incubated for 96 hours, read-out: IC50 (μM) of cancer cell lines HUVEC
Description: as §2, §3, §4

[2] = test system: HN31 (head and neck cancer) cell line; experiment: Cell growth inhibition experiment (SRB), HN31; details: Homo sapiens, incubated for 96 hours, read-out: IC50 (μM) of cancer cell lines HN31
Description: as §1, §2, §3, §4

A549 = experiment: Cell growth inhibition experiment (SRB), A549; details: Homo sapiens, incubated for 96 hours, read-out: IC50 (μM) of cancer cell lines A549
Description: as §2, §3, §4

[3] = test system: MDA-MB-231 (breast cancer) cell line; experiment: Cell growth inhibition experiment (SRB), MDA-MB-231; details: Homo sapiens, incubated for 96 hours, read-out: IC50 (μM) of cancer cell lines MDA-MB-231
Description: as §1, §2, §3, §4

[4] = test system: UMRC2 (kidney cancer) cell line; experiment: Cell growth inhibition experiment (SRB), UMRC2; details: Homo sapiens, incubated for 96 hours, read-out: IC50 (μM) of cancer cell lines UMRC2
Description: as §1, §2, §3, §4

HEK293 = experiment: Cell growth inhibition experiment (SRB), HEK293; details: Homo sapiens, incubated for 96 hours, read-out: IC50 (μM) of cancer cell lines HEK293
Description: as §2, §3, §4

COc1cc(C)cc(N2CCN(C(=O)Nc3nc4sccc4nc3OC)CC2)c1 [Example 21, 4-(3-methoxy-5-methylphenyl)-N-(2-methoxythieno[3,2-b]pyrazin-3-yl)piperazin-1-carboxamide]
IC50 [1]: 2.12 µM | IC50 (HT29): 1.85 µM | IC50 (SK-OV-3): 1.85 µM | IC50 (HUVEC): < 2.5 µM | IC50 [2]: < 2.5 µM | IC50 (A549): 1.63 µM | IC50 [3]: 2.21 µM | IC50 [4]: 1.74 µM | IC50 (HEK293): 1.25 µM

COc1cc(F)cc(N2CCN(C(=O)Nc3nc4sccc4nc3OC)CC2)c1 [Example 22, 4-(3-fluoro-5-methoxyphenyl)-N-(2-methoxythieno[3,2-b]pyrazin-3-yl)piperazin-1-carboxamide]
IC50 [1]: 0.63 µM | IC50 (HT29): 1.12 µM | IC50 (SK-OV-3): 1.36 µM | IC50 (HUVEC): 1.36 µM | IC50 [2]: 0.45 µM | IC50 (A549): 2.21 µM | IC50 [3]: 0.52 µM | IC50 [4]: 0.21 µM | IC50 (HEK293): 1.12 µM

COc1cc(OC)cc(N2CCN(C(=O)Nc3nc4sc(Cl)cc4nc3OC)CC2)c1 [Example 1, N-(6-chloro-2-methoxythieno[3,2-b]pyrazin-3-yl)-4-(3,5-dimethoxyphenyl)piperazin-1-carboxamide]
IC50 [1]: 0.53 µM | IC50 (HT29): 0.31 µM | IC50 (SK-OV-3): 0.27 µM | IC50 (HUVEC): 0.12 µM | IC50 [2]: 0.27 µM | IC50 (A549): 2.13 µM | IC50 [3]: 0.02 µM | IC50 [4]: 0.03 µM | IC50 (HEK293): 0.63 µM

COc1nc2ccsc2nc1NC(=O)N1CCN(c2cc(C)cc(C)c2)CC1 [Example 11, 4-(3,5-dimethylphenyl)-N-(2-methoxythieno[3,2-b]pyrazin-3-yl)piperazin-1-carboxamide]
IC50 [1]: 0.24 µM | IC50 (HT29): 0.31 µM | IC50 (SK-OV-3): 0.27 µM | IC50 (HUVEC): 0.07 µM | IC50 [2]: 0.41 µM | IC50 (A549): 1.31 µM | IC50 [3]: 0.07 µM | IC50 [4]: 0.07 µM | IC50 (HEK293): 0.65 µM

COc1cc(OC)cc(N2CCN(C(=O)Nc3nc4sccc4nc3OC(C)C)CC2)c1 [Example 16, 4-(3,5-dimethoxyphenyl)-N-(2-isopropoxythieno[3,2-b]pyrazin-3-yl)piperazin-1-carboxamide]
IC50 [1]: < 2.5 µM | IC50 (HT29): < 2.5 µM | IC50 (SK-OV-3): < 2.5 µM | IC50 (HUVEC): < 2.5 µM | IC50 [2]: < 2.5 µM | IC50 (A549): < 2.5 µM | IC50 [3]: 2.12 µM | IC50 [4]: < 2.5 µM | IC50 (HEK293): < 2.5 µM

COc1nc2ccsc2nc1NC(=O)N1CCN(c2cc(F)cc(OC(F)(F)F)c2)CC1 [Example 26, 4-(3-fluoro-5-(trifluoromethoxy)phenyl)-N-(2-methoxythieno[3,2-b]pyrazin-3-yl)piperazin-1-carboxamide]
IC50 [1]: < 2.5 µM | IC50 (HT29): < 2.5 µM | IC50 (SK-OV-3): < 2.5 µM | IC50 (HUVEC): < 2.5 µM | IC50 [2]: < 2.5 µM | IC50 (A549): < 2.5 µM | IC50 [3]: < 2.5 µM | IC50 [4]: < 2.5 µM | IC50 (HEK293): < 2.5 µM

COc1nc2ccsc2nc1NC(=O)N1CCN(c2cc(C)cc(F)c2)CC1 [Example 23, 4-(3-fluoro-5-methylphenyl)-N-(2-methoxythieno[3,2-b]pyrazin-3-yl)piperazin-1-carboxamide]
IC50 [1]: 0.58 µM | IC50 (HT29): 0.28 µM | IC50 (SK-OV-3): 0.36 µM | IC50 (HUVEC): 0.45 µM | IC50 [2]: 0.28 µM | IC50 (A549): 0.63 µM | IC50 [3]: 0.36 µM | IC50 [4]: < 2.5 µM | IC50 (HEK293): 0.35 µM

COc1nc2ccsc2nc1NC(=O)N1CCN(c2cccc(OC(F)(F)F)c2)CC1 [Example 24, N-(2-methoxythieno[3,2-b]pyrazin-3-yl)-4-(3-(trifluoromethoxy)phenyl)piperazin-1-carboxamide]
IC50 [1]: 0.44 µM | IC50 (HT29): 0.36 µM | IC50 (SK-OV-3): 0.12 µM | IC50 (HUVEC): < 2.5 µM | IC50 [2]: < 2.5 µM | IC50 (A549): 0.87 µM | IC50 [3]: 0.12 µM | IC50 [4]: 0.36 µM | IC50 (HEK293): 0.25 µM

COc1nc2cc(Cl)sc2nc1NC(=O)N1CCN(c2cc(F)cc(F)c2)CC1 [Example 3, N-(6-chloro-2-methoxythieno[3,2-b]pyrazin-3-yl)-4-(3,5-difluorophenyl)piperazin-1-carboxamide]
IC50 [1]: 0.56 µM | IC50 (HT29): 0.53 µM | IC50 (SK-OV-3): 0.85 µM | IC50 (HUVEC): 0.54 µM | IC50 [2]: 0.71 µM | IC50 (A549): 2.11 µM | IC50 [3]: 0.04 µM | IC50 [4]: 0.06 µM | IC50 (HEK293): 0.87 µM

COc1cc(OC)cc(N2CCN(C(=O)Nc3nc4sc(Cl)cc4nc3OC(C)C)CC2)c1 [Example 7, N-(6-chloro-2-isopropoxythieno[3,2-b]pyrazin-3-yl)-4-(3,5-dimethoxyphenyl)piperazin-1-carboxamide]
IC50 [1]: < 2.5 µM | IC50 (HT29): < 2.5 µM | IC50 (SK-OV-3): < 2.5 µM | IC50 (HUVEC): < 2.5 µM | IC50 [2]: < 2.5 µM | IC50 (A549): < 2.5 µM | IC50 [3]: < 2.5 µM | IC50 [4]: < 2.5 µM | IC50 (HEK293): < 2.5 µM

COc1cc(OC)cc(N2CCN(C(=O)Nc3nc4sccc4nc3OC)CC2)c1 [Example 10, 4-(3,5-dimethoxyphenyl)-N-(2-methoxythieno[3,2-b]pyrazin-3-yl)piperazin-1-carboxamide]
IC50 [1]: 0.38 µM | IC50 (HT29): 0.27 µM | IC50 (SK-OV-3): 0.23 µM | IC50 (HUVEC): 0.06 µM | IC50 [2]: 0.18 µM | IC50 (A549): 1.14 µM | IC50 [3]: 0.02 µM | IC50 [4]: 0.03 µM | IC50 (HEK293): 0.56 µM

COc1nc2ccsc2nc1NC(=O)N1CCN(c2cc(C)cc(OC(F)(F)F)c2)CC1 [Example 19, N-(2-methoxythieno[3,2-b]pyrazin-3-yl)-4-(3-methyl-5-(trifluoromethoxy)phenyl)piperazin-1-carboxamide]
IC50 [1]: 0.58 µM | IC50 (HT29): 0.71 µM | IC50 (SK-OV-3): < 2.5 µM | IC50 (HUVEC): 0.68 µM | IC50 [2]: 1.12 µM | IC50 (A549): 1.52 µM | IC50 [3]: < 2.5 µM | IC50 [4]: 0.25 µM | IC50 (HEK293): 1.23 µM

CCOc1nc2cc(Cl)sc2nc1NC(=O)N1CCN(c2cc(F)cc(F)c2)CC1 [Example 6, N-(6-chloro-2-ethoxythieno[3,2-b]pyrazin-3-yl)-4-(3,5-difluorophenyl)piperazin-1-carboxamide]
IC50 [1]: 1.98 µM | IC50 (HT29): < 2.5 µM | IC50 (SK-OV-3): < 2.5 µM | IC50 (HUVEC): < 2.5 µM | IC50 [2]: 2.1 µM | IC50 (A549): < 2.5 µM | IC50 [3]: 1.13 µM | IC50 [4]: 1.21 µM | IC50 (HEK293): < 2.5 µM

COc1nc2ccsc2nc1NC(=O)N1CCN(c2cc(F)cc(F)c2)CC1 [Example 12, 4-(3,5-difluorophenyl)-N-(2-methoxythieno[3,2-b]pyrazin-3-yl)piperazin-1-carboxamide]
IC50 [1]: 0.24 µM | IC50 (HT29): 0.3 µM | IC50 (SK-OV-3): 0.29 µM | IC50 (HUVEC): 0.07 µM | IC50 [2]: 0.33 µM | IC50 (A549): 1.28 µM | IC50 [3]: 0.05 µM | IC50 [4]: 0.04 µM | IC50 (HEK293): 0.55 µM

CCOc1nc2ccsc2nc1NC(=O)N1CCN(c2cc(OC)cc(OC)c2)CC1 [Example 13, 4-(3,5-dimethoxyphenyl)-N-(2-ethoxythieno[3,2-b]pyrazin-3-yl)piperazin-1-carboxamide]
IC50 [1]: 0.65 µM | IC50 (HT29): < 2.5 µM | IC50 (SK-OV-3): < 2.5 µM | IC50 (HUVEC): < 2.5 µM | IC50 [2]: 0.72 µM | IC50 (A549): < 2.5 µM | IC50 [3]: 0.16 µM | IC50 [4]: 0.26 µM | IC50 (HEK293): < 2.5 µM

CC(C)Oc1nc2cc(Cl)sc2nc1NC(=O)N1CCN(c2cc(F)cc(F)c2)CC1 [Example 9, N-(6-chloro-2-isopropoxythieno[3,2-b]pyrazin-3-yl)-4-(3,5-difluorophenyl)piperazin-1-carboxamide]
IC50 [1]: < 2.5 µM | IC50 (HT29): < 2.5 µM | IC50 (SK-OV-3): < 2.5 µM | IC50 (HUVEC): < 2.5 µM | IC50 [2]: < 2.5 µM | IC50 (A549): < 2.5 µM | IC50 [3]: < 2.5 µM | IC50 [4]: < 2.5 µM | IC50 (HEK293): < 2.5 µM
